Assay results taken from ChEMBL document CHEMBL1201862, “PubChem BioAssay data set” (2004).
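Each compound was tested at five concentrations against cells in 96-well plates for 48 hours. The concentration for 50% growth inhibition is given as GI50.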 Activity calls are given as the source filed them. Rule as the data show it: active = GI50 up to about 1.1 µM and inactive = higher.

Experiments:
Test in all cases: growth of human tumour cells (NCI), 48 h
COLO 205 = system: COLO 205
SN12C = system: SN12C
NCI-H226 = system: NCI-H226
SK-MEL-5 = system: SK-MEL-5
SK-MEL-2 = system: SK-MEL-2
SK-MEL-28 = system: SK-MEL-28
SW-620 = system: SW-620
SF-539 = system: SF-539
SK-OV-3 = system: SK-OV-3
BT-549 = system: BT-549
OVCAR-8 = system: OVCAR-8
HT-29 = system: HT-29
K562 = system: K562
KM12 = system: KM12
LOX IMVI = system: LOX IMVI
Malme-3M = system: Malme-3M
ACHN = system: ACHN
NCI-H460 = system: NCI-H460
MCF7 = system: MCF7
EKVX = system: EKVX

Structure (SMILES): O=S(=O)(c1ccccc1)N1CCN(S(=O)(=O)c2ccccc2)c2ccccc21
- GI50 (COLO 205): > 100 µM (inactive)
- GI50 (SN12C): > 100 µM (inactive)
- GI50 (NCI-H226): > 100 µM (inactive)
- GI50 (SK-MEL-5): 73.3 µM (inactive)
- GI50 (SK-MEL-2): > 100 µM (inactive)
- GI50 (SK-MEL-28): > 100 µM (inactive)
- GI50 (SW-620): > 100 µM (inactive)
- GI50 (SF-539): > 100 µM (inactive)
- GI50 (SK-OV-3): > 100 µM (inactive)
- GI50 (BT-549): > 100 µM (inactive)
- GI50 (OVCAR-8): > 100 µM (inactive)
- GI50 (HT-29): 93.5 µM (inactive)
- GI50 (K562): 96.4 µM (inactive)
- GI50 (KM12): > 100 µM (inactive)
- GI50 (LOX IMVI): > 100 µM (inactive)
- GI50 (Malme-3M): > 100 µM (inactive)
- GI50 (ACHN): > 100 µM (inactive)
- GI50 (NCI-H460): > 100 µM (inactive)
- GI50 (MCF7): 91.8 µM (inactive)
- GI50 (EKVX): 31 µM (inactive)

Structure (SMILES): COc1ccc2c(c1)CCCC(Br)C2=O (centres undefined)
- GI50 (COLO 205): 3.44 µM (inactive)
- GI50 (SN12C): 2.75 µM (inactive)
- GI50 (NCI-H226): 2.18 µM (inactive)
- GI50 (SK-MEL-5): 2.55 µM (inactive)
- GI50 (SK-MEL-2): 1.24 µM (inactive)
- GI50 (SK-MEL-28): 6.92 µM (inactive)
- GI50 (SW-620): 2.29 µM (inactive)
- GI50 (SF-539): 2.56 µM (inactive)
- GI50 (SK-OV-3): 3.97 µM (inactive)
- GI50 (BT-549): 2.55 µM (inactive)
- GI50 (OVCAR-8): 3.98 µM (inactive)
- GI50 (HT-29): 5.31 µM (inactive)
- GI50 (K562): 0.447 µM (active)
- GI50 (KM12): 3.24 µM (inactive)
- GI50 (LOX IMVI): 0.379 µM (active)
- GI50 (Malme-3M): 4.48 µM (inactive)
- GI50 (ACHN): 6.32 µM (inactive)
- GI50 (NCI-H460): 3.18 µM (inactive)
- GI50 (MCF7): 3.43 µM (inactive)
- GI50 (EKVX): 18.1 µM (inactive)

Structure (SMILES): COc1cc2ccc(C(=O)NCCCNC(=O)c3ccc4cc(OC)c(OC)cc4c3)cc2cc1OC
- GI50 (COLO 205): > 100 µM (inactive)
- GI50 (SN12C): > 100 µM (inactive)
- GI50 (NCI-H226): > 100 µM (inactive)
- GI50 (SK-MEL-5): > 100 µM (inactive)
- GI50 (SK-MEL-2): > 100 µM (inactive)
- GI50 (SK-MEL-28): > 100 µM (inactive)
- GI50 (SW-620): > 100 µM (inactive)
- GI50 (SF-539): 53.3 µM (inactive)
- GI50 (SK-OV-3): > 100 µM (inactive)
- GI50 (BT-549): > 100 µM (inactive)
- GI50 (OVCAR-8): > 100 µM (inactive)
- GI50 (HT-29): > 100 µM (inactive)
- GI50 (K562): > 100 µM (inactive)
- GI50 (KM12): > 100 µM (inactive)
- GI50 (LOX IMVI): > 100 µM (inactive)
- GI50 (Malme-3M): > 100 µM (inactive)
- GI50 (ACHN): > 100 µM (inactive)
- GI50 (NCI-H460): 33.7 µM (inactive)
- GI50 (MCF7): > 100 µM (inactive)
- GI50 (EKVX): > 100 µM (inactive)

Structure (SMILES): CC(C)c1ccc(C(c2c(O)oc3ccccc3c2=O)c2c(O)oc3ccccc3c2=O)cc1
- GI50 (COLO 205): 18.7 µM (inactive)
- GI50 (SN12C): 19.4 µM (inactive)
- GI50 (NCI-H226): 20.6 µM (inactive)
- GI50 (SK-MEL-5): 16 µM (inactive)
- GI50 (SK-MEL-2): 14.5 µM (inactive)
- GI50 (SK-MEL-28): 18.9 µM (inactive)
- GI50 (SW-620): 17.1 µM (inactive)
- GI50 (SF-539): 21.8 µM (inactive)
- GI50 (SK-OV-3): 27 µM (inactive)
- GI50 (BT-549): 18.1 µM (inactive)
- GI50 (OVCAR-8): 19.1 µM (inactive)
- GI50 (HT-29): 20.8 µM (inactive)
- GI50 (K562): 18.2 µM (inactive)
- GI50 (KM12): 19.5 µM (inactive)
- GI50 (LOX IMVI): 17.7 µM (inactive)
- GI50 (Malme-3M): 20.6 µM (inactive)
- GI50 (ACHN): 26.2 µM (inactive)
- GI50 (NCI-H460): 18.7 µM (inactive)
- GI50 (MCF7): 27.9 µM (inactive)
- GI50 (EKVX): 22.9 µM (inactive)

Structure (SMILES): O=C(/C=C/c1ccc2c(c1)OCO2)c1ccc(O)cc1
- GI50 (COLO 205): 17.3 µM (inactive)
- GI50 (SN12C): 15.5 µM (inactive)
- GI50 (NCI-H226): 18.5 µM (inactive)
- GI50 (SK-MEL-5): 15.6 µM (inactive)
- GI50 (SK-MEL-2): 16.9 µM (inactive)
- GI50 (SK-MEL-28): 19.3 µM (inactive)
- GI50 (SW-620): 12.1 µM (inactive)
- GI50 (SF-539): 17.4 µM (inactive)
- GI50 (SK-OV-3): 16.5 µM (inactive)
- GI50 (BT-549): 14.2 µM (inactive)
- GI50 (OVCAR-8): 1.64 µM (inactive)
- GI50 (HT-29): 15.4 µM (inactive)
- GI50 (K562): 5.58 µM (inactive)
- GI50 (LOX IMVI): 11.2 µM (inactive)
- GI50 (Malme-3M): 15.3 µM (inactive)
- GI50 (ACHN): 20.2 µM (inactive)
- GI50 (NCI-H460): 15 µM (inactive)
- GI50 (MCF7): 11.1 µM (inactive)
- GI50 (EKVX): 16.6 µM (inactive)

Structure (SMILES): N#CC(N)c1ccc(OCCCCCCCCCCOc2ccc(C(N)C#N)cc2)cc1 (centres undefined)
- GI50 (COLO 205): > 100 µM (inactive)
- GI50 (SN12C): > 100 µM (inactive)
- GI50 (NCI-H226): > 100 µM (inactive)
- GI50 (SK-MEL-5): > 100 µM (inactive)
- GI50 (SK-MEL-2): 81.8 µM (inactive)
- GI50 (SK-MEL-28): > 100 µM (inactive)
- GI50 (SW-620): > 100 µM (inactive)
- GI50 (SF-539): > 100 µM (inactive)
- GI50 (SK-OV-3): > 100 µM (inactive)
- GI50 (BT-549): > 100 µM (inactive)
- GI50 (OVCAR-8): 44.3 µM (inactive)
- GI50 (HT-29): > 100 µM (inactive)
- GI50 (K562): > 100 µM (inactive)
- GI50 (KM12): > 100 µM (inactive)
- GI50 (LOX IMVI): > 100 µM (inactive)
- GI50 (Malme-3M): > 100 µM (inactive)
- GI50 (ACHN): > 100 µM (inactive)
- GI50 (NCI-H460): > 100 µM (inactive)
- GI50 (MCF7): > 100 µM (inactive)
- GI50 (EKVX): > 100 µM (inactive)

Structure (SMILES): CCc1cccc(CC)c1NC(=O)C(C#N)C1=C(Cl)C(=O)c2ccccc2C1=O (centres undefined)
- GI50 (COLO 205): 20.3 µM (inactive)
- GI50 (SN12C): 16.7 µM (inactive)
- GI50 (NCI-H226): 15 µM (inactive)
- GI50 (SK-MEL-5): 14.7 µM (inactive)
- GI50 (SK-MEL-2): 18.8 µM (inactive)
- GI50 (SK-MEL-28): 20.6 µM (inactive)
- GI50 (SW-620): 9.33 µM (inactive)
- GI50 (SF-539): 11.3 µM (inactive)
- GI50 (SK-OV-3): 19.7 µM (inactive)
- GI50 (BT-549): 12.4 µM (inactive)
- GI50 (OVCAR-8): 19.8 µM (inactive)
- GI50 (HT-29): 19.9 µM (inactive)
- GI50 (K562): 2.33 µM (inactive)
- GI50 (KM12): 18.9 µM (inactive)
- GI50 (LOX IMVI): 12.7 µM (inactive)
- GI50 (Malme-3M): 9.23 µM (inactive)
- GI50 (ACHN): 16.4 µM (inactive)
- GI50 (NCI-H460): 22.6 µM (inactive)
- GI50 (MCF7): 14.6 µM (inactive)
- GI50 (EKVX): 21.1 µM (inactive)
